Test results reported in ChEMBL document CHEMBL1126264, “Secondary metabolites by chemical screening. 17. Nigericinol derivatives: synthesis, biological activities, and modeling studies” (1992).
Values after ≈ are worked out from the molar mass of the structure shown.

Key:
herpes simplex virus = test: (§1) Maximum tolerated dose (MTD) of the compound; type: functional
Human alphaherpesvirus 2 = test: Compound was tested for antimicrobial activity against HSV type 2; type: functional
Staphylococcus aureus [1] = test: Compound was tested for antimicrobial activity against Staphylococcus aureus 285
Staphylococcus aureus [2] = test: Compound was tested for antimicrobial activity against Staphylococcus aureus SG511
Human alphaherpesvirus 1 = test: Compound was tested for antimicrobial activity against HSV type 1; type: functional
Streptococcus pyogenes [3] = test: Compound was tested for antimicrobial activity against […] pyogenes 308 A; type: functional
Staphylococcus aureus [4] = test: Compound was tested for antimicrobial activity against Staphylococcus aureus 503
Streptococcus pyogenes [5] = test: Compound was tested for antimicrobial activity against Streptococcus pyogenes 77A; type: functional, […] pyogenes
[6] = as §1; type: functional; settings: herpes simplex virus

Row | Structure (SMILES) | MTD (herpes simplex virus) [µg/mL] | MIC (Human alphaherpesvirus 2) [mg/L] | MIC (Staphylococcus aureus [1]) [mg/L] | MIC (Staphylococcus aureus [2]) [mg/L] | MIC (Human alphaherpesvirus 1) [mg/L] | MIC (Streptococcus pyogenes [3]) [mg/L] | MIC (Staphylococcus aureus [4]) [mg/L] | MIC (Streptococcus pyogenes [5]) [mg/L] | MTD [6] [µg/mL]
1 | CO[C@@H]1C[C@@H](C[C@H]2CC[C@H](C)[C@H]([C@@H](C)CO)O2)OC2(O[C@](C)([C@H]3CC[C@@](C)([C@@H]4O[C@@H]([C@H]5O[C@](COCOCC[Si](C)(C)C)(OCOCC[Si](C)(C)C)[C@H](C)C[C@@H]5C)C[C@@H]4C)O3)C[C@H]2C)[C@@H]1C (stereo partly specified) | > 400 | > 400 | > 100 | > 100 | > 400 | 50 (≈ 51.5 µM) | > 100 | 50 (≈ 51.5 µM) | 
2 | CO[C@@H]1C[C@@H](C[C@H]2CC[C@H](C)[C@H]([C@@H](C)C(=O)O)O2)OC2(O[C@](C)([C@H]3CC[C@@](C)([C@@H]4O[C@@H]([C@H]5O[C@@](O)(CO)[C@H](C)C[C@@H]5C)C[C@@H]4C)O3)C[C@H]2C)[C@@H]1C (stereo partly specified) |  | 0.05 (≈ 0.069 µM) | 0.098 (≈ 0.135 µM) | 0.098 (≈ 0.135 µM) | < 0.02 | 0.025 (≈ 0.0345 µM) | 0.098 (≈ 0.135 µM) | 0.013 (≈ 0.0179 µM) | 1.4
3 | CO[C@@H]1C[C@@H](C[C@H]2CC[C@H](C)[C@H]([C@@H](C)C(=O)OCOCC[Si](C)(C)C)O2)OC2(O[C@](C)([C@H]3CC[C@@](C)([C@@H]4O[C@@H]([C@H]5O[C@](COCOCC[Si](C)(C)C)(OCOCC[Si](C)(C)C)[C@H](C)C[C@@H]5C)C[C@@H]4C)O3)C[C@H]2C)[C@@H]1C (stereo partly specified) | > 40 | 13.3 (≈ 11.9 µM) | > 100 | > 100 | 4.44 (≈ 3.98 µM) | > 100 | > 100 | > 100 | 
4 | CO[C@@H]1C[C@@H](C[C@H]2CC[C@H](C)[C@H]([C@@H](C)COC(=O)C(C)C)O2)OC2(O[C@](C)([C@H]3CC[C@@](C)([C@@H]4O[C@@H]([C@H]5O[C@@](O)(CO)[C@H](C)C[C@@H]5C)C[C@@H]4C)O3)C[C@H]2C)[C@@H]1C (stereo partly specified) |  | > 400 | > 100 | > 100 | > 400 | > 100 | > 100 | > 100 | > 400
5 | CO[C@@H]1C[C@@H](C[C@H]2CC[C@H](C)[C@H]([C@@H](C)CO)O2)OC2(O[C@](C)([C@H]3CC[C@@](C)([C@@H]4O[C@@H]([C@H]5O[C@@](O)(CO)[C@H](C)C[C@@H]5C)C[C@@H]4C)O3)C[C@H]2C)[C@@H]1C (stereo partly specified) |  | < 0.18 | 6.25 (≈ 8.79 µM) | > 100 | < 0.18 | 1.56 (≈ 2.19 µM) | 3.13 (≈ 4.4 µM) | 1.56 (≈ 2.19 µM) | 14.8
6 | CO[C@@H]1C[C@@H](C[C@H]2CC[C@H](C)[C@H]([C@@H](C)CO)O2)OC2(O[C@](C)([C@H]3CC[C@@](C)([C@@H]4O[C@@H]([C@H]5O[C@](COC(=O)C(C)C)(OC)[C@H](C)C[C@@H]5C)C[C@@H]4C)O3)C[C@H]2C)[C@@H]1C (stereo partly specified) |  | > 400 | > 100 | > 100 | > 400 | > 100 | > 100 | > 100 | > 400
7 | CO[C@@H]1C[C@@H](C[C@H]2CC[C@H](C)[C@H]([C@@H](C)CO)O2)OC2(O[C@](C)([C@H]3CC[C@@](C)([C@@H]4O[C@@H]([C@H]5O[C@](CO)(OC)[C@H](C)C[C@@H]5C)C[C@@H]4C)O3)C[C@H]2C)[C@@H]1C (stereo partly specified) |  | 0.5 (≈ 0.69 µM) | > 100 | > 100 | 4.94 (≈ 6.81 µM) | > 100 | > 100 | > 100 | 14.5
8 | CO[C@@H]1C[C@@H](C[C@H]2CC[C@H](C)[C@H]([C@@H](C)C(=O)O)O2)OC2(O[C@](C)([C@H]3CC[C@@](C)([C@@H]4O[C@@H]([C@H]5O[C@](CO)(OC)[C@H](C)C[C@@H]5C)C[C@@H]4C)O3)C[C@H]2C)[C@@H]1C (stereo partly specified) |  | 0.5 (≈ 0.677 µM) | 1.56 (≈ 2.11 µM) | 1.56 (≈ 2.11 µM) | 0.02 (≈ 0.0271 µM) | 0.39 (≈ 0.528 µM) | 1.56 (≈ 2.11 µM) | 0.39 (≈ 0.528 µM) | 4.4
9 | CO[C@@H]1C[C@@H](C[C@H]2CC[C@H](C)[C@H]([C@@H](C)C(=O)O)O2)OC2(O[C@](C)([C@H]3CC[C@@](C)([C@@H]4O[C@@H]([C@H]5O[C@](COC(=O)C(C)C)(OC)[C@H](C)C[C@@H]5C)C[C@@H]4C)O3)C[C@H]2C)[C@@H]1C (stereo partly specified) |  | > 400 | 100 (≈ 124 µM) | > 100 | > 400 | 25 (≈ 30.9 µM) | 25 (≈ 30.9 µM) | > 100 | > 400
10 | CO[C@@H]1C[C@@H](C[C@H]2CC[C@H](C)[C@H]([C@@H](C)CCl)O2)OC2(O[C@](C)([C@H]3CC[C@@](C)([C@@H]4O[C@@H]([C@H]5O[C@@](O)(CCl)[C@H](C)C[C@@H]5C)C[C@@H]4C)O3)C[C@H]2C)[C@@H]1C (stereo partly specified) | 14.8 | < 0.02 | 0.39 (≈ 0.521 µM) | 0.39 (≈ 0.521 µM) | 0.02 (≈ 0.0267 µM) | 0.098 (≈ 0.131 µM) | 0.098 (≈ 0.131 µM) | 0.78 (≈ 1.04 µM) | 
11 | CO[C@@H]1C[C@@H](C[C@H]2CC[C@H](C)[C@H]([C@@H](C)CO)O2)OC2(O[C@](C)([C@H]3CC[C@@](C)([C@@H]4O[C@@H]([C@@H](O)[C@@H](C)C[C@@H](C)CO)C[C@@H]4C)O3)C[C@H]2C)[C@@H]1C (stereo partly specified) |  | 133 (≈ 195 µM) | 3.13 (≈ 4.58 µM) | 6.25 (≈ 9.15 µM) | 40 (≈ 58.6 µM) | 1.56 (≈ 2.28 µM) | 1.56 (≈ 2.28 µM) | 50 (≈ 73.2 µM) | 40
12 | CO[C@@H]1C[C@@H](C[C@H]2CC[C@H](C)[C@H]([C@@H](C)C(=O)O)O2)OC2(O[C@](C)([C@H]3CC[C@@](C)([C@@H]4O[C@@H]([C@H]5OC(=O)[C@H](C)C[C@@H]5C)C[C@@H]4C)O3)C[C@H]2C)[C@@H]1C (stereo partly specified) |  | 13.3 (≈ 19.2 µM) | 50 (≈ 72.2 µM) | 50 (≈ 72.2 µM) | 4.44 (≈ 6.41 µM) | 25 (≈ 36.1 µM) | 50 (≈ 72.2 µM) | 25 (≈ 36.1 µM) | 40
13 | CO[C@@H]1C[C@@H](C[C@H]2CC[C@H](C)[C@H]([C@@H](C)CO)O2)OC2(O[C@](C)([C@H]3CC[C@@](C)([C@@H]4O[C@@H]([C@H]5O[C@@](O)(COC(=O)C(C)C)[C@H](C)C[C@@H]5C)C[C@@H]4C)O3)C[C@H]2C)[C@@H]1C (stereo partly specified) |  | 0.49 (≈ 0.627 µM) | 6.25 (≈ 8 µM) | 12.5 (≈ 16 µM) | 0.49 (≈ 0.627 µM) | 3.13 (≈ 4.01 µM) | 3.13 (≈ 4.01 µM) | 12.5 (≈ 16 µM) | 
14 | CO[C@@H]1C[C@@H](C[C@H]2CC[C@H](C)[C@H]([C@@H](C)C(=O)O)O2)OC2(O[C@](C)([C@H]3CC[C@@](C)([C@@H]4O[C@@H]([C@H]5O[C@@](O)(COC(=O)C(C)C)[C@H](C)C[C@@H]5C)C[C@@H]4C)O3)C[C@H]2C)[C@@H]1C (stereo partly specified) |  | < 0.02 | 0.39 (≈ 0.491 µM) | 0.39 (≈ 0.491 µM) | < 0.02 | 0.049 (≈ 0.0616 µM) | 0.19 (≈ 0.239 µM) | 0.049 (≈ 0.0616 µM) | 1.4
